Source: ChEMBL document CHEMBL1128011, “Discovery of nonpeptide potent conformationally restricted angiotensin II receptor antagonists” (Bioorg Med Chem Lett, 1994)

Organism: Oryctolagus cuniculus
Test: Compound was tested in vitro for its ability to antagonize the AII-mediated contraction of rabbit aortic rings
Format: functional, Aorta
Conditions: not given
In the case of `CCCCc1ncc2n1[C@H](c1ccc(-c3ccccc3-c3nn[nH]n3)cc1)CC[C@@H]2N1C(=O)CCC1=O`, the pA2 is reported as 8.6.

Same assay, conditions: Oryctolagus cuniculus, Aorta; read-out: pA2 (converted)
Work on `CCCCc1nc(Cl)c2n1[C@H](c1ccc(-c3ccccc3-c3nn[nH]n3)cc1)CC[C@@H]2N1C(=O)CCC1=O` yielded a Kb of 1.58 nM.

What follows are compounds tested against T1, Type-1 angiotensin II receptor B (Rattus norvegicus, UniProt P29089) (assay: Displacement of [125-I]-labeled angiotensin II from Angiotensin II receptor, type 1 of rat uterine membranes). Conditions: not given.
T1 sequence (P29089 whole entry): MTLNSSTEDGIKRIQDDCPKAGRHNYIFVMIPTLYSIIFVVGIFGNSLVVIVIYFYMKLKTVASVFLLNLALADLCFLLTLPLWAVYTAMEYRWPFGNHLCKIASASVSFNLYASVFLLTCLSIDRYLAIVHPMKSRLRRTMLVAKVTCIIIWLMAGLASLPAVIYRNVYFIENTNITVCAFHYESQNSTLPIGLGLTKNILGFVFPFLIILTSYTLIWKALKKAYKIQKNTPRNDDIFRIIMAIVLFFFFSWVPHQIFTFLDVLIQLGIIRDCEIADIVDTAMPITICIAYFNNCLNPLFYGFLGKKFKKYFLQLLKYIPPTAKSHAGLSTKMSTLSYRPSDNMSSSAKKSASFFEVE
Format: cell membranes, Membrane
In the case of `CCCCN1N=C(CCC)/C(=C/c2ccc(-c3ccccc3-c3nn[nH]n3)cc2)C1=O`, the IC50 is reported as 45000 nM.
For `CCCCn1nc2n(c1=O)C(c1ccc(-c3ccccc3-c3nn[nH]n3)cc1)CCC2CCC` (stereo in doubt; 13), the IC50 was 1600 nM.
With `CCCCc1nn(CCCC)c(=O)n1Cc1ccc(-c2ccccc2-c2nnn(C(c3ccccc3)(c3ccccc3)c3ccccc3)n2)cc1` the IC50 was > 10000 nM.
With `CCCCn1nc2n(c1=O)C(c1ccc(-c3ccccc3-c3nnn(C(c4ccccc4)(c4ccccc4)c4ccccc4)n3)cc1)CCC2CCC` (stereo not given) the IC50 was > 10000 nM.
For `CCCCn1nc2n(c1=O)C(c1ccc(-c3ccccc3-c3nn[nH]n3)cc1)CCC2CCC` (stereo in doubt; 12), the IC50 was 1800 nM.
Compound `CCCCc1nn(CCCC)c(=O)n1Cc1ccc(-c2ccccc2-c2nnn[nH]2)cc1` has an IC50 of 5 nM.
With `CCCCc1ncc2n1C(c1ccc(-c3ccccc3-c3nnn[nH]3)cc1)CC=C2` (stereo not given) the IC50 was > 10000 nM.
For `CCCCn1nc(C(CCC)CC2=NC(C)(C)CO2)n(Cc2ccc(-c3ccccc3-c3nnn(C(c4ccccc4)(c4ccccc4)c4ccccc4)n3)cc2)c1=O` (stereo not given), the IC50 was > 10000 nM.
Compound `CCCCN1N=C(CCC)C(Cc2ccc(-c3ccccc3-c3nn[nH]n3)cc2)C1=O` (stereo not given) has an IC50 of 500 nM.
`CCCCn1nc(C(CCC)CCO)n(Cc2ccc(-c3ccccc3-c3nnn(C(c4ccccc4)(c4ccccc4)c4ccccc4)n3)cc2)c1=O` (stereo not given) was tested, and the IC50 was > 10000 nM.
With `CCCC1CCC(c2ccc(-c3ccccc3-c3nnn[nH]3)cc2)n2c1n[nH]c2=O` (stereo not given) the IC50 was > 10000 nM.
With `CCCCn1nc(C(CCC)CCBr)n(Cc2ccc(-c3ccccc3-c3nnn(C(c4ccccc4)(c4ccccc4)c4ccccc4)n3)cc2)c1=O` (stereo not given) the IC50 was > 10000 nM.
With `CCCCn1nc(C(Br)CCC)n(Cc2ccc(-c3ccccc3-c3nnn(C(c4ccccc4)(c4ccccc4)c4ccccc4)n3)cc2)c1=O` (stereo not given) the IC50 was > 10000 nM.

What follows are compounds tested against T1, Type-1 angiotensin II receptor B (assay: Inhibition of [125-I]-labeled angiotensin II binding to AT1 receptor in rat uterine membranes). Conditions: not given.
Format: cell membranes, Membrane
With `CCCCc1ncc2n1[C@H](c1ccc(-c3ccccc3-c3nnn(C(c4ccccc4)(c4ccccc4)c4ccccc4)n3)cc1)C[C@@H](Br)[C@@H]2N1C(=O)CCC1=O` the IC50 was > 10000 nM.
`CCCCn1nc2n(c1=O)C(c1ccc(-c3ccccc3-c3nnn(C(c4ccccc4)(c4ccccc4)c4ccccc4)n3)cc1)CCC2CCC` (stereo not given) was tested, and the IC50 was > 10000 nM.
`CCCCc1nc(CCCC)n2c1C=CCC2c1ccc(-c2ccccc2-c2nn[nH]n2)cc1` (stereo not given) gave an IC50 of 190 nM.
For `CCCCc1ncc2n1C(c1ccc(-c3ccccc3-c3nnn[nH]3)cc1)CC=C2` (stereo not given), the IC50 was 120 nM.
`CCCCc1cn(Cc2ccc(-c3ccccc3-c3nnn(C(c4ccccc4)(c4ccccc4)c4ccccc4)n3)cc2)c(CCCC)n1` was tested, and the IC50 was > 10000 nM.
`CCCCc1ncc2n1[C@H](c1ccc(-c3ccccc3-c3nnn(C(c4ccccc4)(c4ccccc4)c4ccccc4)n3)cc1)CC[C@@H]2N1C(=O)CCC1=O` was tested, and the IC50 was > 10000 nM.
`CCCCc1ncc2n1[C@H](c1ccc(-c3ccccc3-c3nn[nH]n3)cc1)CC[C@@H]2N1C(=O)CCC1=O` showed an IC50 of 15 nM.
Work on `CCCCc1cn(Cc2ccc(-c3ccccc3-c3nnn[nH]3)cc2)c(CCCC)n1` yielded an IC50 of 63 nM.
In the case of `CCCCn1nc2n(c1=O)C(c1ccc(-c3ccccc3-c3nn[nH]n3)cc1)CCC2` (stereo not given), the IC50 is reported as > 10000 nM.
`CCCCc1nc(Cl)c2n1[C@H](c1ccc(-c3ccccc3-c3nn[nH]n3)cc1)CC[C@@H]2N1C(=O)CCC1=O` was tested, and the IC50 was 11 nM.
